# Results from patent US10799484B2, “Compositions and methods for treating synucleinopathies” (priority 2017, dated 2020).
# Read-outs that look alike come from different tables or passages of the source.
# Experiments:
# [1] = system: dopaminergic neurons in a mouse PD model; conditions: cited from earlier work
# PD patients = conditions: doses approved for motor symptoms of PD; 535 PD patients; cited from earlier work
# [2] = biological target: synuclein oligomer formation (Homo sapiens, UniProt P37840); conditions: in vitro; cited from earlier work
# patients = conditions: 5 mg/day, cited from earlier work
# humans = conditions: for MTD-1 (Pramipexole alone): Period 1
# Description: The ability of the 5HT3-antagonists to prevent the gastro-intestinal (GI) adverse effects (AEs) of pramipexole in humans was tested.
# A Phase I study was conducted in subjects receiving a single oral dose of pramipexole dihydrochloride monohydrate (“pramipexole”) with or without a single oral dose of ondansetron hydrochloride dihydrate (“ondansetron”). The study was single center, single-blind study.
# Following enrollment in the study, participants received single increasing oral doses of pramipexole given once daily in the morning (Period 1 of the study). The starting dose of pramipexole was 0.5 mg and the dose was increased daily by 0.5 mg increments. Once a subject had reached his/her first intolerable dose (FID-1), upward dose escalation was discontinued.
# When a subject reached FID-1 on pramipexole alone, the subject was washed out for at least 5 days, and then entered Period 2 of the study during which the subject received single daily oral doses of pramipexole starting at 0.5 mg and titrated upward by 0.5 mg increments, together with oral ondansetron hydrochloride dihydrate (10 mg, equivalent to 8 mg ondansetron base) until subjects again reached an intolerable dose defined as above. The FID on oral pramipexole plus oral ondansetron was referred to as FID-2.
# If a subject reached FID-2 during Period 2 at the same or lower dose than FID-1, and providing the investigator judged there were no safety issues and the subject was consenting, the subject received the same dose of pramipexole as the FID-2 dose together with a higher dose of oral ondansetron hydrochloride dihydrate (20 mg, equivalent to 16 mg ondansetron base) on the next day and the protocol specified that said subject should continue with the remainder of the dose titration with the higher dose of oral ondansetron hydrochloride dihydrate (20 mg, equivalent to 16 mg ondansetron base) until they reach the intolerable dose (FID2+). All other provisions of the protocol remained unchanged. Assessments were the same as those planned for the dose escalation day.
# On each study day, subjects were followed up for up to 8 hours following drug administration for AEs, vital signs, ECGs. In addition, a laboratory panel was taken at screening and at the end of the study.
# [3] = system: human neuroblastoma SH-SY5Y cells; conditions: cited from earlier work
# [4] = biological target: human wild-type alpha-synuclein (Homo sapiens, UniProt P37840); conditions: in vitro; by H2O2 plus cytochrome c; cited from earlier work
smiles,measurement,setting,value
"CCCN[C@H]1CCc2nc(N)sc2C1 [Pramipexole, (S)-6-propylamino-4,5,6,7-tetrahydro-1,3-benzothiazole-2-amine]",toxic effects of rotenone on dopaminergic neurons,[1],inhibits
same,immunoreactivity for alpha-synuclein,[1]; rotenone,reducing
same,neuroprotective (disease modifying) activity,PD patients,failed to evidence
same,synuclein oligomer formation,[2],diminishes
same,patients with nausea,patients,76%
same,patients with vomiting,patients,39%
same,patients not able to complete the study,patients; presumably because of intolerable GI adverse events,36%
same,dose limiting toxicity,humans; in vivo,gastro-intestinal adverse events
same,MTD-1 (Pramipexole alone),humans; subject 1001,2.0 mg
same,MTD-1 (Pramipexole alone),humans; subject 1005,1.5 mg
same,MTD-1 (Pramipexole alone),"humans; subject 1006, cell wraps: NA (not tolerated at 0.5 mg), the starting dose",NA (not tolerated at
same,MTD-1 (Pramipexole alone),humans; subject 1007,4.0 mg
same,MTD-1 (Pramipexole alone),humans; subject 1008,1.0 mg
same,aggregation of alpha-synuclein,[3],inhibit
same,oligomerization of human wild-type alpha-synuclein,[4],decreases
